Values of other authors, collected in patent US9200991B2, “Sorptive extraction layer for immobilized liquid extraction” (Tecan Trading AG, priority 2013, dated 2015).

For `CC(C)Cc1ccc(C(C)C(=O)O)cc1` (stereo not shown) [Ibuprofen], the “reported logP” value is listed as “approximately 3.8”.
